Measurements from ChEMBL document CHEMBL1122782, “Bulky amine analogues of ketoprofen: potent antiinflammatory agents” (J Med Chem, 1984).

How the values were obtained:
Format in all cases: functional
Rattus norvegicus [1] = assay: The mean increase in paw volume was compared between drug treated groups and placebo to calculate the percent inhibition in rats at 0.02 mmol/kg by carrageenan Edema Assay; 30-39; conditions: Rattus norvegicus
Rattus norvegicus [2] = assay: The percent inhibition was calculated from the average differences in hind paw volume between the adjuvant injected controls and the adjuvant-injected medicated rats at 0.08 mmol/kg; 90-99
Rattus norvegicus [3] = assay: The mean increase in paw volume was compared between drug treated groups and placebo to calculate the percent inhibition in rats at 0.02 mmol/kg by carrageenan Edema Assay; 0-19
Rattus norvegicus [4] = assay: The mean increase in paw volume was compared between drug treated groups and placebo to calculate the percent inhibition in rats at 0.02 mmol/kg by carrageenan Edema Assay 0-19
Rattus norvegicus [5] = assay: The mean increase in paw volume was compared between drug treated groups and placebo to calculate the percent inhibition in rats at 0.02 mmol/kg by carrageenan Edema Assay; 20-29
Rattus norvegicus [6] = assay: The mean increase in paw volume was compared between drug treated groups and placebo to calculate the percent inhibition in rats at 0.08 mmol/kg by carrageenan Edema Assay; 30-39
Rattus norvegicus [7] = assay: The percent inhibition was calculated from the average differences in hind paw volume between the adjuvant injected controls and the adjuvant-injected medicated rats at 0.08 mmol/kg; 40-49
Rattus norvegicus [8] = assay: The mean increase in paw volume was compared between drug treated groups and placebo to calculate the percent inhibition in rats at 0.08 mmol/kg by carrageenan Edema Assay; 40-49
Rattus norvegicus [9] = assay: The percent inhibition was calculated from the average differences in hind paw volume between the adjuvant injected controls and the adjuvant-injected medicated rats at 0.08 mmol/kg; 70-79

`CC(CN1CCCCC1CC1CCCCC1)c1cccc(C(N)c2ccccc2)c1` (stereo unspecified) was tested, and the inhibition in vivo at 20 µmol/kg (Rattus norvegicus [1]) was 30% and the inhibition in vivo at 80 µmol/kg (Rattus norvegicus [2]) was 90%.

`CC(CN1CCCCC1CC1CCCCC1)c1cccc(C(C)c2ccccc2)c1` (stereo unspecified) was tested, and the inhibition in vivo at 20 µmol/kg (Rattus norvegicus [3]) was 0%.

`O=C(c1ccccc1)c1cccc(CCN2CCOCC2)c1` gave an inhibition in vivo at 20 µmol/kg (Rattus norvegicus [4]) of 0%.

`Cc1ccccc1C(=O)c1cccc(C(C)CN2CCCCC2CC2CCCCC2)c1` (stereo unspecified) was tested, and the inhibition in vivo at 20 µmol/kg (Rattus norvegicus [5]) was 20%.

`CN(C)CCCNCCc1cccc(C(=O)c2ccccc2)c1` was tested, and the inhibition in vivo at 80 µmol/kg (Rattus norvegicus [6]) was 30% and the inhibition in vivo at 80 µmol/kg (Rattus norvegicus [7]) was 40%.

`Cc1cccc(C(=O)c2cccc(C(C)CN3CCCCC3CC3CCCCC3)c2)c1` (stereo unspecified) was tested, and the inhibition in vivo at 20 µmol/kg (Rattus norvegicus [3]) was 0%.

`Cc1ccc(C(=O)c2cccc(C(C)CN3CCCCC3CC3CCCCC3)c2)cc1` (stereo unspecified) gave an inhibition in vivo at 20 µmol/kg (Rattus norvegicus [3]) of 0%.

`CC(CN1CCCCC1CC1CCCCC1)c1cccc(C(O)c2c(Cl)cccc2Cl)c1` (stereo unspecified) showed an inhibition in vivo at 20 µmol/kg (Rattus norvegicus [3]) of 0%.

Work on `CC(CN1CCCCC1C1CCCCC1)c1cccc(C(=O)c2ccccc2)c1` (stereo unspecified) yielded an inhibition in vivo at 80 µmol/kg (Rattus norvegicus [6]) of 30% and an inhibition in vivo at 80 µmol/kg (Rattus norvegicus [2]) of 90%.

In the case of `CC(CN1CCOCC1)c1cccc(C(N)c2ccccc2)c1` (stereo unspecified), the inhibition in vivo at 80 µmol/kg (Rattus norvegicus [8]) is reported as 40% and the inhibition in vivo at 80 µmol/kg (Rattus norvegicus [9]) is reported as 70%.

`CC(CN1CCCCC1CC1CCCCC1)c1cccc(C(=O)c2ccccc2Cl)c1` (stereo unspecified) was tested, and the inhibition in vivo at 20 µmol/kg (Rattus norvegicus [1]) was 30% and the inhibition in vivo at 80 µmol/kg (Rattus norvegicus [9]) was 70%.

`OC(c1ccccc1)c1cccc(CCN2CCCCC2CC2CCCCC2)c1` (stereo unspecified) was tested, and the inhibition in vivo at 20 µmol/kg (Rattus norvegicus [3]) was 0%.

With `CC(CN1CCCCC1CCCC1CCCCC1)c1cccc(C(=O)c2ccccc2)c1` (stereo unspecified) the inhibition in vivo at 80 µmol/kg (Rattus norvegicus [6]) was 30%.

For `CC(CN1CCCCC1)c1cccc(C(=O)c2ccccc2)c1` (stereo unspecified), the inhibition in vivo at 80 µmol/kg (Rattus norvegicus [6]) was 30% and the inhibition in vivo at 80 µmol/kg (Rattus norvegicus [7]) was 40%.

Work on `O/N=C(/c1ccccc1)c1cccc(CCN2CCOCC2)c1` yielded an inhibition in vivo at 20 µmol/kg (Rattus norvegicus [3]) of 0%.
